Source: patent publication US7452688B2, “Transformed cell with enhanced sensitivity to antifungal compound and use thereof” (Sumitomo Chemical Company, Limited, priority 2002, dated 2008)

Key:
Format in all cases: cell-based, Saccharomyces cerevisiae
[1] = tested on: transformed budding yeast AH22-BcOS1-I365S; test: Antifungal compound sensitivity test, transformed budding yeast AH22-BcOS1-I365S (Example 6); conditions: absorbance at 600 nm relative to 0 ppm = 100
Text: Degrees of growths of both of the transformed budding yeasts cultured under the presence of Compounds (1) to (7) and budding yeast as a control therefor are shown in Table 2. Degrees of growths of both of the transformed budding yeasts and budding yeast as a control are expressed by a relative value in percentage, letting the absorbance at 600 nm at the concentration of the Compound of 0 ppm to be 100. It was confirmed that an inhibiting degree of growth of the transformed budding yeast TM182-BcOS1-I 365S by each test substance was grater than an inhibiting degree of growth of the transformed budding yeast AH22-BcOS1-I 365S by each test substance, and the transformed budding yeast TM182-BcOS1-I365S was a transformed cell with the enhanced sensitivity to an antifungal compound as compared with the transformed budding yeast AH22-BcOS1-I365S.

[2] = tested on: transformed budding yeast AH22-StOS1; test: Antifungal compound sensitivity test, transformed budding yeast AH22-StOS1 (Example 16); conditions: 30° C. 28 hours, relative value in percentage
Description: The transformed budding yeast AH22-StOS1 prepared in Example 15 was cultured while shaking at 30° C. for 18 hours in a Glu-Leu medium. As a control, the AH22 strain was similarly cultured while shaking at 30° C. for 18 hours in a Glu medium. The absorbance at 600 nm of each grown transformed budding yeast in a cell suspension was measured, and cell suspension diluted with sterilized distilled water to the absorbance of 0.1 was prepared. Further, a cell suspension in which the aforementioned cell suspension of the transformed budding yeast AH22-StOS1 was diluted 50-fold with a Glu-Leu medium, and a cell suspension in which the aforementioned cell suspension of the AH22 strain was diluted 50-fold with a Glu medium were prepared.
A solution in which each of Compounds (1) to (3) was dissolved in dimethylsulfoxide (DMSO) to the concentration of 6 ppm, a solution in which each of Compounds (4) and (5) was dissolved in dimethylsulfoxide (DMSO) to the concentration of 2000 ppm, and a solution in which Compounds (6) and (7) was dissolved in dimethylsulfoxide (DMSO) to the concentration of 20 ppm were prepared, and two microplates were prepared in which each 1.0 μL per well of the Compound solution and DMSO as a control were dispensed. In one microplate among them, each 100 μL of cell suspensions of the transformed budding yeast AH22-StOS1 which had been prepared by dilution as described above was dispensed, and cultured by allowing to stand at 30° C. for 28 hours. In another microplate, each 100 μL of cell suspensions of the control yeast AH22 strain which had been prepared by dilution as described above was dispensed, and cultured by allowing to stand at 30° C. for 24.5 hours. After culturing, the absorbance at 600 nm of each well was measured with a microplate reader.
A degree of growth of the transformed budding yeast is expressed as a relative value in percentage, letting the absorbance at 600 nm at the concentration of the Compound of 0 ppm to be 100. It was confirmed that an inhibiting degree of growth of the transformed budding yeast TM182-StOS1 by each test substance was grater than an inhibiting degree of growth of the transformed budding yeast AH22-StOS1 by each test substance, and the transformed budding yeast TM182-StOS1 was a transformed cell with the enhanced sensitivity to an antifungal compound as compared with the transformed budding yeast AH22-StOS1.

[3] = tested on: transformed budding yeast AH22-BcOS1; test: Antifungal compound sensitivity test, transformed budding yeast AH22-BcOS1 (Example 3); conditions: 30° C. 48 hours, absorbance at 600 nm relative to 0 ppm = 100
Description: The transformed budding yeast AH22-BcOS1 prepared in Example 2 was cultured while shaking at 30° C. for 18 hours in a Glu-Leu medium. As a control, the AH22 strain was similarly cultured while shaking at 30° C. for 18 hours in a Glu medium. The absorbance at 600 nm of each of the grown transformed budding yeasts in a cell suspension was measured, and a cell suspension diluted with sterilized distilled water to the absorbance of 0.1 was prepared. Further, a cell suspension in which the aforementioned cell suspension of the transformed budding yeast AH22-BcOS1 was diluted 200-fold with a Glu-Leu medium, and a cell suspension in which the aforementioned cell suspension of the AH22 strain was diluted 200-fold with a Glu medium were prepared. A solution in which each of Compounds (1) to (3) was dissolved in dimethylsulfoxide (DMSO) to the concentration of 60 ppm, a solution in which each of Compounds (4) and (5) was dissolved in dimethylsulfoxide (DMSO) to the concentration of 2000 ppm, and a solution in which each of Compounds (6) and (7) was dissolved in dimethylsulfoxide (DMSO) to the concentration of 20 ppm were prepared, and two microplates were prepared in which each 2.0 μL per well of the Compound solution and DMSO as a control were dispensed into two wells. In one microplate among them, each 200 μL of cell suspensions of the transformed budding yeast AH22-BcOS1 which had been prepared by dilution as described above was dispensed, and cultured by allowing to stand at 30° C. for 48 hours. In another microplate, each 200 μL of the cell suspensions of the control yeast AH22 strain which had been prepared by dilution as described above was dispensed, and cultured by allowing to stand at 30° C. for 48 hours. After culturing, the absorbance at 600 nm of each well was measured with a microplate reader.
Degree of growths of both of the transformed budding yeasts cultured under the presence of each of Compound (1) to (7) and budding yeast as a control therefor are shown in Table 1. Degree of growths of both of the transformed budding yeasts and budding yeasts as a control therefor are expressed by a relative value in percentage, letting the absorbance at 600 nm in a well having the concentration of the aforementioned Compound of 0 ppm to be 100. It was confirmed that an inhibiting degree of growth of TM182-BcOS1 by each test substance was grater than an inhibiting degree of growth of AH22-BcOS1 by each test substance, and the TM182-BcOS1 was a transformed cell with the enhanced sensitivity to an antifungal compound as compared with AH22-BcOS1.

With CC12CC1(C)C(=O)N(c1cc(Cl)cc(Cl)c1)C2=O (stereo not drawn) [Compound (1), Procymidone] the “Degree of growth of budding yeast (%) AH22-BcOS1-I365S Glu-Leu medium” value (“Degree … (%) AH22-BcOS1-I365S Glu-Leu medium” for short) ([1]; final concentration 6 ppm) was 68%, the “Degree of growth of budding yeast AH22-StOS1 Glu-Leu medium” value ([2]; final concentration 0.6 ppm) was 101% and the “Degree of growth of budding yeast (%) AH22-BcOS1 Glu-Leu medium” value (shortened to “Degree … (%) AH22-BcOS1 Glu-Leu medium”) ([3]; final concentration 0.6 ppm) was 90%.
In the case of CC(C)NC(=O)N1CC(=O)N(c2cc(Cl)cc(Cl)c2)C1=O [Compound (2), Iprodione], the “Degree … (%) AH22-BcOS1-I365S Glu-Leu medium” value ([1]; final concentration 6 ppm) is reported as 81%, the “Degree of growth of budding yeast AH22-StOS1 Glu-Leu medium” value ([2]; final concentration 0.6 ppm) is reported as 100% and the “Degree … (%) AH22-BcOS1 Glu-Leu medium” value ([3]; final concentration 0.6 ppm) is reported as 92%.
For C=CC1(C)OC(=O)N(c2cc(Cl)cc(Cl)c2)C1=O (stereo not drawn) [Compound (3), Vinclozolin], the “Degree … (%) AH22-BcOS1-I365S Glu-Leu medium” value ([1]; final concentration 6 ppm) was 75%, the “Degree of growth of budding yeast AH22-StOS1 Glu-Leu medium” value ([2]; final concentration 0.6 ppm) was 98% and the “Degree … (%) AH22-BcOS1 Glu-Leu medium” value ([3]; final concentration 0.6 ppm) was 93%.
For O=[N+]([O-])c1c(Cl)c(Cl)c(Cl)c(Cl)c1Cl [Compound (4), Quintozene], the “Degree … (%) AH22-BcOS1-I365S Glu-Leu medium” value ([1]; final concentration 20 ppm) was 83%, the “Degree of growth of budding yeast AH22-StOS1 Glu-Leu medium” value ([2]; final concentration 20 ppm) was 91% and the “Degree … (%) AH22-BcOS1 Glu-Leu medium” value ([3]; final concentration 20 ppm) was 45%.
With COP(=S)(OC)Oc1c(Cl)cc(C)cc1Cl [Compound (5), Tolclofos-methyl] the “Degree … (%) AH22-BcOS1-I365S Glu-Leu medium” value ([1]; final concentration 20 ppm) was 64%, the “Degree of growth of budding yeast AH22-StOS1 Glu-Leu medium” value ([2]; final concentration 20 ppm) was 76% and the “Degree … (%) AH22-BcOS1 Glu-Leu medium” value ([3]; final concentration 20 ppm) was 79%.
With N#Cc1c[nH]cc1-c1cccc2c1OC(F)(F)O2 [Compound (6), Fludioxonil] the “Degree … (%) AH22-BcOS1-I365S Glu-Leu medium” value ([1]; final concentration 0.2 ppm) was 67%, the “Degree of growth of budding yeast AH22-StOS1 Glu-Leu medium” value ([2]; final concentration 0.2 ppm) was 93% and the “Degree … (%) AH22-BcOS1 Glu-Leu medium” value ([3]; final concentration 0.2 ppm) was 81%.
N#Cc1c[nH]cc1-c1cccc(Cl)c1Cl [Compound (7), Fenpiclonil] was tested, and the “Degree … (%) AH22-BcOS1-I365S Glu-Leu medium” value ([1]; final concentration 0.2 ppm) was 79%, the “Degree of growth of budding yeast AH22-StOS1 Glu-Leu medium” value ([2]; final concentration 0.2 ppm) was 91% and the “Degree … (%) AH22-BcOS1 Glu-Leu medium” value ([3]; final concentration 0.2 ppm) was 94%.
